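Step 1: Grow cells in 96-well plates. Step 2: Expose to compound for 48 hours at 5 concentrations. Step 3: Interpolate endpoints linearly; if unreached, use highest concentration. Here, GI50 denotes the concentration required for 50% inhibition of growth. TGI is the concentration that stops growth completely.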
Assays:
Assay in all cases: NCI anticancer screen, dose series, 48 h
NCI-H23 lung = tested on: NCI-H23 lung
NCI-H460 lung = tested on: NCI-H460 lung
NCI-H522 lung = tested on: NCI-H522 lung
NCI/ADR-RES ovarian = tested on: NCI/ADR-RES ovarian
OVCAR-3 ovarian = tested on: OVCAR-3 ovarian
OVCAR-4 ovarian = tested on: OVCAR-4 ovarian
OVCAR-5 ovarian = tested on: OVCAR-5 ovarian
OVCAR-8 ovarian = tested on: OVCAR-8 ovarian
PC-3 prostate = tested on: PC-3 prostate
RPMI-8226 leukemia = tested on: RPMI-8226 leukemia
RXF 393 renal = tested on: RXF 393 renal
SF-268 CNS = tested on: SF-268 CNS
SF-295 CNS = tested on: SF-295 CNS
SF-539 CNS = tested on: SF-539 CNS
SK-MEL-2 melanoma = tested on: SK-MEL-2 melanoma
SK-MEL-28 melanoma = tested on: SK-MEL-28 melanoma
SK-MEL-5 melanoma = tested on: SK-MEL-5 melanoma
SK-OV-3 ovarian = tested on: SK-OV-3 ovarian
SN12C renal = tested on: SN12C renal
SNB-19 CNS = tested on: SNB-19 CNS
SNB-75 CNS = tested on: SNB-75 CNS
SR leukemia = tested on: SR leukemia
SW-620 colon = tested on: SW-620 colon
T-47D breast = tested on: T-47D breast
TK-10 renal = tested on: TK-10 renal
U251 CNS = tested on: U251 CNS
UACC-257 melanoma = tested on: UACC-257 melanoma
UACC-62 melanoma = tested on: UACC-62 melanoma
UO-31 renal = tested on: UO-31 renal

COc1cc(OC)c(C(=O)/C=C/c2cccc(C(F)(F)F)c2)c(OC)c1
TGI (NCI-H23 lung): 3.48 µM | GI50 (NCI-H460 lung): 1.08 µM | TGI (NCI-H460 lung): 2.67 µM | GI50 (NCI-H522 lung): 0.857 µM | TGI (NCI-H522 lung): 1.94 µM | GI50 (NCI/ADR-RES ovarian): 1.4 µM | TGI (NCI/ADR-RES ovarian): 5.95 µM | GI50 (OVCAR-3 ovarian): 2.03 µM | TGI (OVCAR-3 ovarian): 6.89 µM | GI50 (OVCAR-4 ovarian): 2.24 µM | TGI (OVCAR-4 ovarian): 8.57 µM | GI50 (OVCAR-5 ovarian): 2.28 µM | TGI (OVCAR-5 ovarian): 7.04 µM | GI50 (OVCAR-8 ovarian): 1.41 µM | TGI (OVCAR-8 ovarian): 5.86 µM | GI50 (PC-3 prostate): 1.64 µM | TGI (PC-3 prostate): 6.05 µM | GI50 (RPMI-8226 leukemia): 1.03 µM | TGI (RPMI-8226 leukemia): 2.85 µM | GI50 (RXF 393 renal): 1.03 µM | TGI (RXF 393 renal): 2.24 µM | GI50 (SF-268 CNS): 1.64 µM | TGI (SF-268 CNS): 6.13 µM | GI50 (SF-295 CNS): 1.67 µM | TGI (SF-295 CNS): 6.72 µM | GI50 (SF-539 CNS): 1.37 µM | TGI (SF-539 CNS): 3.5 µM | GI50 (SK-MEL-2 melanoma): 1.22 µM | TGI (SK-MEL-2 melanoma): 3.37 µM | GI50 (SK-MEL-28 melanoma): 1.51 µM | TGI (SK-MEL-28 melanoma): 4.74 µM | GI50 (SK-MEL-5 melanoma): 1.07 µM | TGI (SK-MEL-5 melanoma): 2.54 µM | GI50 (SK-OV-3 ovarian): 3.03 µM | TGI (SK-OV-3 ovarian): 9.37 µM | GI50 (SN12C renal): 1.52 µM | TGI (SN12C renal): 5.68 µM | GI50 (SNB-19 CNS): 1.44 µM | TGI (SNB-19 CNS): 4.67 µM | GI50 (SNB-75 CNS): 1.88 µM | TGI (SNB-75 CNS): 7.9 µM | GI50 (SR leukemia): 0.826 µM | TGI (SR leukemia): 3.13 µM | GI50 (SW-620 colon): 1.58 µM | TGI (SW-620 colon): 5.01 µM | GI50 (T-47D breast): 1.61 µM | TGI (T-47D breast): 9.43 µM | GI50 (TK-10 renal): 1.85 µM | TGI (TK-10 renal): 6.01 µM | GI50 (U251 CNS): 1.01 µM | TGI (U251 CNS): 2.1 µM | GI50 (UACC-257 melanoma): 2.06 µM | TGI (UACC-257 melanoma): 7.89 µM | GI50 (UACC-62 melanoma): 0.986 µM | TGI (UACC-62 melanoma): 2.5 µM | GI50 (UO-31 renal): 1.43 µM | TGI (UO-31 renal): 5.24 µM
